From ChEMBL document CHEMBL1759955, “6-Benzoyl-3-hydroxypyrimidine-2,4-diones as dual inhibitors of HIV reverse transcriptase and integrase” (Bioorg Med Chem Lett, 2011)

Columns and labels:
[1] = molecular target: Human immunodeficiency virus type 1 reverse transcriptase (Human immunodeficiency virus 1) (UniProt Q72547); assay: Inhibition of HIV-1 reverse transcriptase at 10 uM
[2] = molecular target: Human immunodeficiency virus type 1 reverse transcriptase (Human immunodeficiency virus 1, UniProt Q72547); assay: Inhibition of HIV-1 reverse transcriptase
[3] = tested on: CEM-SS; assay: Cytotoxicity against human CEM-SS cells assessed as viable cells at 10 uM; assay type: cell-based
[4] = molecular target: Human immunodeficiency virus type 1 reverse transcriptase (Human immunodeficiency virus 1) (UniProt Q72547); assay: Inhibition of HIV-1 reverse transcriptase at 100 uM
[5] = tested on: Human immunodeficiency virus 1; assay: Antiviral activity against HIV-1 3B infected in human CEM-SS cells assessed as protection against virus induced cytopathic effect at 10 uM; assay type: functional; details: Human immunodeficiency virus 1, 3B
[6] = molecular target: T1, Human immunodeficiency virus type 1 integrase (Human immunodeficiency virus 1, UniProt Q7ZJM1); assay: Inhibition of HIV1 integrase strand transfer activity
[7] = molecular target: T1, Human immunodeficiency virus type 1 integrase; assay: Inhibition of HIV1 integrase 3'-end processing activity
[8] = tested on: Human immunodeficiency virus 1; assay: Antiviral activity against HIV-1 3B infected in human CEM-SS cells; assay type: functional, organism-based; details: Human immunodeficiency virus 1, 3B
[9] = Therapeutic index, ratio of CC50 for human CEM-SS cells to EC50 for HIV-1 3B infected in human CEM-SS cells; assay type: cell-based; details: CEM-SS cells (uninfected, and infected with HIV-1 3B)
[10] = tested on: CEM-SS; assay: Cytotoxicity against human CEM-SS cells; assay type: cell-based

T1 sequence (Q7ZJM1 whole entry): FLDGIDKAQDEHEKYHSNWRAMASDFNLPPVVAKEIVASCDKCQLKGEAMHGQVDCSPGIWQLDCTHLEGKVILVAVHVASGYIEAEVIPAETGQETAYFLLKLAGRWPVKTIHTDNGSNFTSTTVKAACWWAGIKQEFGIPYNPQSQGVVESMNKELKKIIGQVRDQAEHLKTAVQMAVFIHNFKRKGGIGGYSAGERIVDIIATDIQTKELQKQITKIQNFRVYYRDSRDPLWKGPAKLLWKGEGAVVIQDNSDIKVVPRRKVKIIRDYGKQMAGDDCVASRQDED

CCc1c(C(=O)c2cc(C)cc(C)c2)n(COCCc2ccc(F)cc2)c(=O)n(O)c1=O
inhibition [1]: 60%
IC50 [2]: 10 µM
Activity [3]: 81%
inhibition [4]: 74%
inhibition at 10 µM [5]: 56%
IC50 [6]: 7 µM
IC50 [7]: > 111 µM

CCOCn1c(C(=O)c2cc(C)cc(C)c2)c(CC)c(=O)n(O)c1=O
EC50 [8]: 0.03 µM
inhibition [1]: 61%
IC50 [2]: 0.5 µM
selectivity ratio [9]: 2600
Activity [3]: 100%
inhibition [4]: 94%
CC50 [10]: 77 µM
inhibition at 10 µM [5]: 100%
IC50 [6]: > 111 µM
IC50 [7]: > 111 µM

CCOCn1c(C(=O)c2ccccc2)c(CC)c(=O)n(O)c1=O
EC50 [8]: 2.3 µM
IC50 [2]: 43 µM
selectivity ratio [9]: 41
Activity [3]: 100%
CC50 [10]: 94 µM
inhibition at 10 µM [5]: 100%
IC50 [6]: > 111 µM
IC50 [7]: > 111 µM

CCc1c(C(=O)c2ccccc2)n(COCc2ccc(F)cc2)c(=O)n(O)c1=O
EC50 [8]: 2 µM
IC50 [2]: 23 µM
selectivity ratio [9]: > 50
Activity [3]: 100%
CC50 [10]: > 100 µM
inhibition at 10 µM [5]: 100%
IC50 [6]: 25 µM
IC50 [7]: > 111 µM

CCc1c(C(=O)c2cc(C)cc(C)c2)n(COCc2ccc(F)cc2)c(=O)n(O)c1=O
EC50 [8]: 0.36 µM
IC50 [2]: 7.6 µM
selectivity ratio [9]: 78
Activity [3]: 100%
CC50 [10]: 28 µM
inhibition at 10 µM [5]: 100%
IC50 [6]: 21 µM
IC50 [7]: > 111 µM

CCc1c(C(=O)c2ccccc2)n(COCCc2ccc(F)cc2)c(=O)n(O)c1=O
EC50 [8]: 0.34 µM
inhibition [1]: 4%
selectivity ratio [9]: > 290
Activity [3]: 100%
inhibition [4]: 46%
CC50 [10]: > 100 µM
inhibition at 10 µM [5]: 100%
IC50 [6]: 4.1 µM
IC50 [7]: > 111 µM

CCc1c(C(=O)c2ccccc2)n(COCc2ccccc2)c(=O)n(O)c1=O
EC50 [8]: 1.4 µM
IC50 [2]: 14 µM
selectivity ratio [9]: > 71
Activity [3]: 98%
CC50 [10]: > 100 µM
inhibition at 10 µM [5]: 100%
IC50 [6]: 37 µM
IC50 [7]: > 111 µM

CCc1c(C(=O)c2cc(C)cc(C)c2)n(COCc2ccccc2)c(=O)n(O)c1=O
EC50 [8]: 0.061 µM
inhibition [1]: 79%
IC50 [2]: 1 µM
selectivity ratio [9]: 540
Activity [3]: 100%
inhibition [4]: 92%
CC50 [10]: 33 µM
inhibition at 10 µM [5]: 100%
IC50 [6]: 41 µM
IC50 [7]: > 111 µM
